Data reported in patent publication US5981539A, “Piperidine compounds as calcium channel blockers” (Neurosearch A/S, priority 1995, dated 1999).

Biological target: N-type calcium channels (chick cortical synaptosomes) (Gallus gallus, UniProt A0A8V1AJW5)
Sequence (A0A8V1AJW5 1-2349): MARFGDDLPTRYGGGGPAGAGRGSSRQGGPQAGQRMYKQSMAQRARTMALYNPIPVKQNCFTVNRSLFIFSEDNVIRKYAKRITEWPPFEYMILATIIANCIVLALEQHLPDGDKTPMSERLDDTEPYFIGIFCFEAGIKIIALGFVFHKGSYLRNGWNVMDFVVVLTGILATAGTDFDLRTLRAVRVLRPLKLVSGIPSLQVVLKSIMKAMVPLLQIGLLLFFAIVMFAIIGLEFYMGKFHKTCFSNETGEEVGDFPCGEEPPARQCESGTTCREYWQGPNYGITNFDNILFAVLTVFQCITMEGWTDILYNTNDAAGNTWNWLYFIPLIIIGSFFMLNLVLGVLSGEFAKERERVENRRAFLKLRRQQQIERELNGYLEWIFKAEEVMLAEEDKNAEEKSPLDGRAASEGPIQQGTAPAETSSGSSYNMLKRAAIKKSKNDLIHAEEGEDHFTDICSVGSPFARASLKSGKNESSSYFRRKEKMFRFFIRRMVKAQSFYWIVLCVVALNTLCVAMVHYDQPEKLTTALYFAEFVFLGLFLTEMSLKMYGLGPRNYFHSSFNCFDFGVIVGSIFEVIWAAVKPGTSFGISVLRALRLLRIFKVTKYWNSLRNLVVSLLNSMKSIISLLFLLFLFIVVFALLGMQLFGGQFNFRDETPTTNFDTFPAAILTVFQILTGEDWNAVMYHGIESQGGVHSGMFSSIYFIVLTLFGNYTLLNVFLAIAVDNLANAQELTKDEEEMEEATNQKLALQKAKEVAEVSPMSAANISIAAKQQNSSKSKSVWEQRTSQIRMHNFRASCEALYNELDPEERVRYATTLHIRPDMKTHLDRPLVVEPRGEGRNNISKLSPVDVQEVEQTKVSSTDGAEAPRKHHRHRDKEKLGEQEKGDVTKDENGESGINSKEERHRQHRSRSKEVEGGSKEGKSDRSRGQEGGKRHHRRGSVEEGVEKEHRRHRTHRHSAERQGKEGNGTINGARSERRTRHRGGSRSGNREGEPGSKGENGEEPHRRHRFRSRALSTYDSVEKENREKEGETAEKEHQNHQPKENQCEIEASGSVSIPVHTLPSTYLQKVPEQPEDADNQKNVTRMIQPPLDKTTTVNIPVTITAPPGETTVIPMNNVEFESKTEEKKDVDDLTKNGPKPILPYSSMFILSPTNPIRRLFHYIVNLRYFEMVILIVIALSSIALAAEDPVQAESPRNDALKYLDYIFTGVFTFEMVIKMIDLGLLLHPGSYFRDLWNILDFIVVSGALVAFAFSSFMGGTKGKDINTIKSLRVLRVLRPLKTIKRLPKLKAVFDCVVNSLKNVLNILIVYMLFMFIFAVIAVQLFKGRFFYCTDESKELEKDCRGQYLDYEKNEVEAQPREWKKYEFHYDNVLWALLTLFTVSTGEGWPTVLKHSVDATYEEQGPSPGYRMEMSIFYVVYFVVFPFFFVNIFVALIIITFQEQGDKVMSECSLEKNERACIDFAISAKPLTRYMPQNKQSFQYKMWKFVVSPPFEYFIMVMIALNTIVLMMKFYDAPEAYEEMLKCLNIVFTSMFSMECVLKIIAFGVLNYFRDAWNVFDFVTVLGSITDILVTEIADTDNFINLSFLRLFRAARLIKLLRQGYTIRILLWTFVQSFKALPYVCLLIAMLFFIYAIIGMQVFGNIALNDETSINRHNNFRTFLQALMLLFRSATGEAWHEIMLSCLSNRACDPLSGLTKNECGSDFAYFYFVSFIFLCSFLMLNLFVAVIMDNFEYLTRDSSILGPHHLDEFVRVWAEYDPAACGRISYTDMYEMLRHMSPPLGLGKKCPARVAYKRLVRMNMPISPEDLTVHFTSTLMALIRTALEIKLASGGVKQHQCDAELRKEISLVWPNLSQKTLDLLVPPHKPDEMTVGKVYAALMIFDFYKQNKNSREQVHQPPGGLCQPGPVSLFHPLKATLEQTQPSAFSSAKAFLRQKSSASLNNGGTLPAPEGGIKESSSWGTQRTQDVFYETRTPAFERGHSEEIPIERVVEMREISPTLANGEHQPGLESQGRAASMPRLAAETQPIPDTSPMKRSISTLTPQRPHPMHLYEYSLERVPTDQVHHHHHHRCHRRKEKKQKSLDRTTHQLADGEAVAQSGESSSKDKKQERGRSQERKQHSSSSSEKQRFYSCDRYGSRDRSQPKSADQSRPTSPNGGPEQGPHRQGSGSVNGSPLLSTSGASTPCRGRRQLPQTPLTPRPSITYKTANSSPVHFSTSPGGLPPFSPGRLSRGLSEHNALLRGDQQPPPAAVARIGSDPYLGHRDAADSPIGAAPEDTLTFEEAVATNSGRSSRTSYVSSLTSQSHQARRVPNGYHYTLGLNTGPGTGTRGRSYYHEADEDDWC
Experiment: 45Ca-uptake/influx into chick cortical synaptosomes (K+ depolarization, 30 mM K+)
Type: biochemical
Settings: 30 mM K+ minus 4 mM K+, 10 sec influx, 37° C., pH 7.4, read-out: IC50 (concentration of test substance which inhibits the specific uptake of 45Ca by 50%)
With `CCCCCN1CC[C@H](CCOc2ccccc2-c2ccccc2)[C@H](OC)C1` (racemic) [(±)-cis-4-[2-(2-phenylphenoxy)ethyl]-3-methoxy-N-pentylpiperidine] the IC50 was 1000 nM.
Molecule `CCCCCN1CC[C@@H](CCOc2ccc(Cl)c(Cl)c2)[C@H](OC(C)=O)C1` (racemic) [(±)-trans-4-[2-(3,4-Dichlorophenoxy)-ethyl]-3-acetoxy-N-pentylpiperidine] has an IC50 of 500 nM.
`CCCCCN1CC[C@@H](CCOc2ccc(Cl)c(Cl)c2)[C@@H](OCCOC)C1` (relative stereo) [(±)-cis-4-[2-(3,4-Dichlorophenoxy)-ethyl]-3-(2-methoxy)-ethoxy-N-pentylpiperidine] showed an IC50 of 300 nM.
Molecule `CCCCCN1CC[C@H](CCOc2ccccc2Cc2ccccc2)[C@H](OC)C1` (racemic) [(±)-cis-4-[2-(2-benzylphenoxy)ethyl]-3-methoxy-N-pentylpiperidine] has an IC50 of 900 nM.
`CCCCCN1CC[C@@H](CCN(c2ccccc2)c2ccccc2)[C@H](OC)C1` (racemic) [(±)-trans-4-[2-(N,N-diphenylamino)ethyl]-3-methoxy-N-pentylpiperidine] showed an IC50 of 1300 nM.
For `CCCCCN1CC[C@@H](Oc2ccc(Oc3ccccc3)cc2)[C@H](OCCOC)C1` (racemic) [(±)-trans-4-[4-phenoxyphenoxy]-3-(2-methoxy-1-ethoxy)-N-pentylpiperidine], the IC50 was 620 nM.
`CCCCCN1CC[C@@H](CCOc2cccc(OC(C)C)c2)[C@H](OCCOC)C1` (racemic) [(±)-trans-4-[2-(3-isopropoxyphenoxy)ethyl]-3-(2-methoxy-1-ethoxy)-N-pentylpiperidine] showed an IC50 of 1100 nM.
For `CCCCCN1CC[C@H](CCOc2cccc(C)c2C)[C@H](OC)C1` (racemic) [(±)-cis-4-[2-(2,3-Dimethylphenoxy)-ethyl]-3-methoxy-N-pentylpiperidine], the IC50 was 900 nM.
`CCCCCN1CC[C@@H](Oc2ccccc2OCc2ccccc2)[C@H](OCCOC)C1` (racemic) [(±)-trans-4-[(2-benzyloxyphenoxy)]-3-(2-methoxy-1-ethoxy)-N-pentylpiperidine] gave an IC50 of 900 nM.
In the case of `CCCCCN1CC[C@@H](CCOc2ccc(Cl)c(Cl)c2)[C@H](OC)C1` (racemic) [(±)-trans-4-[2-(3,4-Dichlorophenoxy)-ethyl]-3-methoxy-N-pentylpiperidine], the IC50 is reported as 700 nM.
For `CCCCCN1CC[C@@H](CCOc2ccccc2Cc2ccccc2)[C@H](OC)C1` (racemic) [(±)-trans-4-[2-(2-benzylphenoxy)ethyl]-3-methoxy-N-pentylpiperidine], the IC50 was 600 nM.
Work on `CCCCCN1CC[C@@H](SCc2ccc(Cl)cc2)[C@H](OCCOC)C1` (racemic) [(±)-trans-4-[(4-chlorobenzyl)thio]-3-(2-methoxy-1-ethoxy)-N-pentylpiperidine] yielded an IC50 of 1000 nM.
In the case of `CCCCCN1CC[C@@H](CCN(c2ccccc2)c2ccccc2)[C@H](OCCOC)C1` (racemic) [(±)-trans-4-[2-(N,N-diphenylamino)ethyl]-3-(2-methoxy-1-ethoxy)-N-pentylpiperidine], the IC50 is reported as 500 nM.
With `CCCCCN1CC[C@H](CCOc2ccc(Cl)c(Cl)c2)[C@@H](OCCOC)C1` (relative stereo) [(±)-trans-4-[2-(3,4-Dichlorophenoxy)-ethyl]-3-(2-methoxy)-ethoxy-N-pentylpiperidine] the IC50 was 400 nM.
Molecule `CCCCCN1CC[C@H](CCN(c2ccccc2)c2ccccc2)[C@H](OC)C1` (racemic) [(±)-cis-4-[2-(N,N-diphenylamino)ethyl]-3-methoxy-N-pentylpiperidine] has an IC50 of 1100 nM.

Test system: not given
Experiment: not given
Settings: drugs that act at both sodium and calcium channels; result in words; cited from earlier work
In the case of `COc1ccc(CN2CCN(C(c3ccc(F)cc3)c3ccc(F)cc3)CC2)c(OC)c1OC` [Lomerizine], the “anti-ischaemic activity in animal models” value is given as “powerful anti-ischaemic activity”.
For `Cc1ccc(-c2nc(C)c(CN3CCN(C(c4ccccc4)c4ccccc4)CC3)[nH]2)cc1` [Lifarizine], the “anti-ischaemic activity in animal models” value is given as “powerful anti-ischaemic activity”.
For Lanodipine, the “anti-ischaemic activity in animal models” value is given as “powerful anti-ischaemic activity”.
